Reference: ChEMBL document CHEMBL4340547, “Synthesis and SAR development of quinoline analogs as novel P2X7 receptor antagonists” (Bioorg Med Chem Lett, 2019)

Columns and labels:
[1] = Intrinsic clearance in human liver microsomes; type: ADME, Microsome; conditions: read-out: CLH
P2X purinoceptor 7 [2] = target: T1, P2X purinoceptor 7 (Homo sapiens, UniProt Q99572); test: Antagonist activity at P2X7R in LPS-stimulated human THP1 cells assessed as inhibition of BzATP-induced IL-1beta release preincubated for 30 mins followed by BzATP stimulation and measured after 30 mins by sandwich ELISA
T1 sequence (Q99572 whole entry): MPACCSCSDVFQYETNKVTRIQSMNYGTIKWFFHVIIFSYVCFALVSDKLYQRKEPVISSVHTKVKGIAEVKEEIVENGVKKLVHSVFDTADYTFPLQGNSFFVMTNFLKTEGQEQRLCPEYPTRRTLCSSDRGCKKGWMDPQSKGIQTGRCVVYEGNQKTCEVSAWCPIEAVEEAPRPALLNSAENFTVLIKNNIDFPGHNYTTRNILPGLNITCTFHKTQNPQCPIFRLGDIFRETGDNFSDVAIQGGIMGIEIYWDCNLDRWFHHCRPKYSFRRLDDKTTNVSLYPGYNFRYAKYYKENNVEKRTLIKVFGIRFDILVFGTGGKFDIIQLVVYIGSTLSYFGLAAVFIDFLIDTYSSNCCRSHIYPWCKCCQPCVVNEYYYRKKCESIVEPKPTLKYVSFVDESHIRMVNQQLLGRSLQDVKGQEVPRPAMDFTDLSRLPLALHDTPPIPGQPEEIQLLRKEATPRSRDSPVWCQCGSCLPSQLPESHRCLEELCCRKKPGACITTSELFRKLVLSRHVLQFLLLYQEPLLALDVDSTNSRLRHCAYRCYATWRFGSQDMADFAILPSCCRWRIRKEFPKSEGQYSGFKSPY

MDR [3] = test: Apparent permeability across apical to basolateral side in MDCK cells expressing MDR; type: ADME, cell-based, Canis lupus familiaris; conditions: dog, MDCK-MDR1
[4] = Intrinsic clearance in mouse liver microsomes; type: ADME, Microsome; conditions: read-out: CLH
[5] = Intrinsic clearance in rat liver microsomes; type: ADME, Microsome; conditions: read-out: CLH
P2X purinoceptor 7 [6] = target: T1, P2X purinoceptor 7; test: Antagonist activity at human P2X7 receptor expressed in HEK293 cells assessed as inhibition of BzATP-induced YO PRO dye uptake preincubated for 20 mins followed by YO PRO dye and BzATP addition measured after 30 mins by fluorescence assay; type: cell-based
MDR [7] = test: Efflux ratio of apparent permeability in MDCK cells expressing MDR; type: ADME, cell-based, Canis lupus familiaris; conditions: dog, MDCK-MDR1
P2X purinoceptor 7 [8] = target: T2, P2X purinoceptor 7 (Rattus norvegicus, UniProt Q64663); test: Antagonist activity at rat P2X7 receptor assessed as inhibition of BzATP-induced YO PRO dye uptake preincubated for 20 mins followed by YO PRO dye and BzATP addition measured after 30 mins by fluorescence assay
T2 sequence (Q64663 whole entry): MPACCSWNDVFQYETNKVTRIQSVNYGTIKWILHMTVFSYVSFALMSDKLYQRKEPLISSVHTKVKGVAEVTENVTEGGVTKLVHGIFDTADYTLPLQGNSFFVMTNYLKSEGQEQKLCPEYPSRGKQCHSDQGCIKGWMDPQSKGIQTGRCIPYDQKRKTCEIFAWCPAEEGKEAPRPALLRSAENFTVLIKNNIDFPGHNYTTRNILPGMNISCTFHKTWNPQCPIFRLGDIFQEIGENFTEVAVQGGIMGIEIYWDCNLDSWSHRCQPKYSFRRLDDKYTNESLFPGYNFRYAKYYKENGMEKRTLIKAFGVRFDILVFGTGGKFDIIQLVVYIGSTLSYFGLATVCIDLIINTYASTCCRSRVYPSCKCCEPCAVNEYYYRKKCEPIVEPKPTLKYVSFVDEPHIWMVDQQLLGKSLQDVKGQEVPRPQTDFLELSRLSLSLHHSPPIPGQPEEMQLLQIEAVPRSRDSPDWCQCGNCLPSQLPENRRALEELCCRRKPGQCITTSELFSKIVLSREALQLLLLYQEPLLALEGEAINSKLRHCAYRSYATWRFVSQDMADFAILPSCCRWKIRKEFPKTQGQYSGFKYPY

P2X purinoceptor 7 [9] = target: T3, P2X purinoceptor 7 (Mus musculus, UniProt Q9Z1M0); test: Antagonist activity at mouse P2X7 receptor assessed as inhibition of BzATP-induced YO PRO dye uptake preincubated for 20 mins followed by YO PRO dye and BzATP addition measured after 30 mins by fluorescence assay
T3 sequence (Q9Z1M0 whole entry): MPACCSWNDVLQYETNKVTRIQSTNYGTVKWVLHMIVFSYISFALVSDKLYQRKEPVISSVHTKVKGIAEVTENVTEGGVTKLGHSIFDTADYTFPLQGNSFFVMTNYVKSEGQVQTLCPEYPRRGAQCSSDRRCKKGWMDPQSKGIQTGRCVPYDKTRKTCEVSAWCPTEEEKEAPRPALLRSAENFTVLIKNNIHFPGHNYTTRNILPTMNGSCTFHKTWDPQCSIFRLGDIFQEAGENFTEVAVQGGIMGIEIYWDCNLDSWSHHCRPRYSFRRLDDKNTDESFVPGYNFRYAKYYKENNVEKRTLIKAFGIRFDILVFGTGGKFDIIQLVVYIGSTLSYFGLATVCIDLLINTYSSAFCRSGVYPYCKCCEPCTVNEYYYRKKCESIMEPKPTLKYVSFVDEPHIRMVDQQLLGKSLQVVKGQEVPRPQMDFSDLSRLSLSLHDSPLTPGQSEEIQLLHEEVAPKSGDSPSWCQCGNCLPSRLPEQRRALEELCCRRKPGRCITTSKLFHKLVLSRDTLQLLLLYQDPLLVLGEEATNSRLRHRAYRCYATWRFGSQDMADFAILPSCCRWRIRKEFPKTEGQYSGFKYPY

Row | microsomal CLint [1] [µL/min/mg] | IC50 (P2X purinoceptor 7 [2]) [nM] | Papp A→B (MDR [3]) [×10⁻⁶ cm/s] | microsomal CLint [4] [µL/min/mg] | microsomal CLint [5] [µL/min/mg] | IC50 (P2X purinoceptor 7 [6]) [nM] | efflux ratio (MDR [7]) | IC50 (P2X purinoceptor 7 [8]) [nM] | IC50 (P2X purinoceptor 7 [9]) [nM] | SMILES
1 | 17 | 12 | 0.18 | 10 | 10 | 10 | 114 | – | – | O=C(NCC1CCC(F)(F)CC1)c1c(Cl)ccc2nc(N3CCC(NCCO)C3)ccc12 (centres undefined)
2 | – | 160 | – | – | – | 94 | – | – | – | O=C(NCC1CCC(F)(F)CC1)c1c(Cl)ccc2nc(C3CCCC3)ccc12
3 | 50 | 36.4 | 6.8 | 48 | 31 | 19 | 8.7 | 4300 | 4830 | O=C(NC[C@]1(O)CCCC(F)(F)C1)c1c(Cl)ccc2nc(N3CC[C@@H](F)C3)ccc12
4 | 21 | 24.8 | 8.9 | 65 | 23 | 4.5 | 4.3 | 640 | 1400 | C[C@H]1CCC[C@@](O)(CNC(=O)c2c(Cl)ccc3nc(N4CC[C@@H](F)C4)ccc23)C1

Further lines, the compound ahead of its results:

Row | SMILES | microsomal CLint [1] [µL/min/mg] | IC50 (P2X purinoceptor 7 [2]) [nM] | Papp A→B (MDR [3]) [×10⁻⁶ cm/s] | microsomal CLint [4] [µL/min/mg] | microsomal CLint [5] [µL/min/mg] | IC50 (P2X purinoceptor 7 [6]) [nM] | efflux ratio (MDR [7]) | IC50 (P2X purinoceptor 7 [8]) [nM] | IC50 (P2X purinoceptor 7 [9]) [nM]
5 | O=C(NCC1CCC(F)(F)CC1)c1c(Cl)ccc2ncccc12 | – | 220 | – | – | – | 230 | – | – | –
6 | O=C(NCC1CCC(F)(F)CC1)c1c(Cl)ccc2nc(N3CC[C@@H](F)C3)ccc12 | 12 | 104 | 18.4 | 10 | 31 | 19 | 0.69 | – | –
7 | O=C(NCC1CCC(F)(F)CC1)c1c(Cl)ccc2nc(N3CCC(CCO)C3)ccc12 (centres undefined) | 32 | 100 | 16.5 | 23 | 46 | 47 | 3.8 | – | –
8 | C[C@@H]1CCC[C@@](O)(CNC(=O)c2c(Cl)ccc3nc(N4CCC(N(C)C)C4)ccc23)C1 (some centres undefined) | 44 | 6 | 1.4 | 52 | 32 | 3.6 | 39 | 549 | 2000
9 | O=C(NCC1CCC(F)(F)CC1)c1c(Cl)ccc2nc(N3CCCC3)ccc12 | 87 | 108 to 110 | 31.8 | 49 | 57 | 37 | 1.2 | – | –
